Measurements published in patent publication US20240351986A1, “UREA COMPOUND CONTAINING 2-HETEROAROMATIC RING SUBSTITUTION, PREPARATION METHOD THEREFOR AND USE THEREOF” (SHANGHAI INSTITUTE OF MATERIA MEDICA, CHINESE ACADEMY OF …, priority 2021, published 2024).

Biological target: T1, Recombinant human CDK9/cyclin T1 (Homo sapiens, UniProt P50750)
T1 construct: purchased Carna bioscience 04-110
Assay: CDK9 enzyme inhibitory activity (ADP-Glo kinase assay)
Assay type: biochemical
Conditions: CDK9 enzyme activity, average of two independent repeats; for inhibition at 0.01 µM: compound 10 nM, read-out: Inhibition rate at different concentrations (%) 10 nM; for inhibition at 0.1 µM: compound 100 nM, read-out: Inhibition rate at different concentrations (%) 100 nM
Description: Experimental method: Recombinant human CDK9/cyclin T1 (Carna bioscience, Cat #04-110) was diluted with dilution buffer (20 mM Tris HCl (pH 7.5), 0.02% Triton X-100, 0.01% BSA, 2 mM DTT, 0.5 mM Na3VO4, 10% Glycerol) to […], the substrates CDK7/9 tide (ThermoFisher, Cat #PV5090) and ATP (sigmaaldrich, Cat #A1852) were diluted with assay buffer (25 mM Tris HCl (pH7.5), 10 mM MgCl2, 0.5 mM EGTA (pH 8), 0.5 mM Na3VO4, 5 mMb-glycerol phosphate, 0.1% Triton X-100, 2.5 mM DTT) to final concentrations of 100 μM and […] respectively, aliquot and set aside. 2 μl of diluted recombinant human CDK9/cyclin T1, 1 μl of test compound, and 2 μl of diluted substrate CDK7/9 tide containing ATP were added to the 384-well plate. […] The positive control was the well in which enzyme and substrate were co-incubated, and the negative control was the well in which dilution buffer and substrate were co-incubated. The inhibition rate was calculated according to the following formula.

T1 sequence (P50750 whole entry): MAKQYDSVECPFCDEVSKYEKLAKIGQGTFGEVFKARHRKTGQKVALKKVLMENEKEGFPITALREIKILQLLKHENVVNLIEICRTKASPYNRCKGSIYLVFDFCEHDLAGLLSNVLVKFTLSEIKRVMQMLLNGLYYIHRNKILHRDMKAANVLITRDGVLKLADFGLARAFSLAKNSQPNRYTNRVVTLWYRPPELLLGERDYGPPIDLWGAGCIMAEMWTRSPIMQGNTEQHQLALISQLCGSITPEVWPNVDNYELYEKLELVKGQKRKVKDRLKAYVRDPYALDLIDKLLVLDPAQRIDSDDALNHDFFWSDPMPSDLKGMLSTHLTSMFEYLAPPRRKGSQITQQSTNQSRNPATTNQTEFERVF
T1 sequence (O60563 whole entry partner): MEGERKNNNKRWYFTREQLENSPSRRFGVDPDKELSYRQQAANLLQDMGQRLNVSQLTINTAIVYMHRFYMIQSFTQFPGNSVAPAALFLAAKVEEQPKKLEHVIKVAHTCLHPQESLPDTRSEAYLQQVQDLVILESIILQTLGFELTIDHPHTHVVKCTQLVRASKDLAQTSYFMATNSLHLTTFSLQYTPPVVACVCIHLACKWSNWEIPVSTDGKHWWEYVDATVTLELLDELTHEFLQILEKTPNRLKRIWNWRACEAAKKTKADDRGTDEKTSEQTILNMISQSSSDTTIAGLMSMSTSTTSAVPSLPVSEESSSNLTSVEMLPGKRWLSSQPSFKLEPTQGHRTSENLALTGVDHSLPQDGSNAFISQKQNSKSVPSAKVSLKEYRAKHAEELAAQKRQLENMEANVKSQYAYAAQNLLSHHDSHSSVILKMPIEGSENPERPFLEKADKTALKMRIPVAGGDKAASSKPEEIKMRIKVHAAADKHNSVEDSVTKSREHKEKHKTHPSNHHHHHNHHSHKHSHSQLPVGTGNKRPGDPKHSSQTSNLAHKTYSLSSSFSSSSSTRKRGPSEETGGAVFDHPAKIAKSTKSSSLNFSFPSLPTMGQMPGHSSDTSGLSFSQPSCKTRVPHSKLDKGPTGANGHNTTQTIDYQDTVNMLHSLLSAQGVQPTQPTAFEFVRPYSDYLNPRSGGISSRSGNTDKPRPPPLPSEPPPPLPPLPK

| Structure (SMILES) | inhibition at 0.01 µM [%] | inhibition at 0.1 µM [%] |
| --- | --- | --- |
| COc1cc(F)ccc1-c1cc(NC(=O)NC2CCC(NC(C)=O)CC2)ncc1F (centres unmarked) [Example 30, N-((1r,4r)-4-(3-(5-fluoro-4-(4-fluoro-2-methoxyphenyl)pyridin-2-yl)ureido)cyclohexyl)acetamide] | 23.1 | 55.3 |
| [2H]C([2H])([2H])OCCNC1CCC(NC(=O)Nc2cc(-c3cnn4c3CC(C)(C)C4)c(Cl)cn2)CC1 (centres unmarked) [Example 58, 1-(5-chloro-4-(5,5-dimethyl-5,6-dihydro-4H-pyrrolo[1,2-b]pyrazol-3-yl)pyridin-2-yl)-3-((1r,4r)-4-((2-(methoxy-d3)ethyl)amino)cyclohexyl)urea] | 65.1 | 98.2 |
| CC(=O)NC1CCC(NC(=O)Nc2cc(-c3cnc(C)n3C(C)C)c(Cl)cn2)CC1 (centres unmarked) [Example 85, N-((1r,4r)-4-(3-(5-chloro-4-(1-isopropyl-2-methyl-1H-imidazol-5-yl)pyridin-2-yl)ureido)cyclohexyl)acetamide] | 28.9 | 72 |
| CC1(C)Cc2c(-c3cc(NC(=O)NC4CCC(NC(=O)C5COC5)CC4)ncc3Cl)cnn2C1 (centres unmarked) [Example 50, N-((1r,4r)-4-(3-(5-chloro-4-(5,5-dimethyl-5,6-dihydro-4H-pyrrolo[1,2-b]pyrazol-3-yl)pyridin-2-yl)ureido)cyclohexyl) oxetane-3-carboxamide] | 53.2 | 95.1 |
| CNC1CCC(NC(=O)Nc2cc(-c3cnn4c3CC(C)(C)C4)c(Cl)cn2)CC1 (centres unmarked) [Example 88, 1-(5-chloro-4-(5,5-dimethyl-5,6-dihydro-4H-pyrrolo[1,2-b]pyrazol-3-yl)pyridin-2-yl)-3-((1r,4r)-4-(methylamino)cyclohexyl)urea] | 55.7 | 94.2 |
| CC(=O)NC1CCC(NC(=O)Nc2cc(-c3cnn4c3CC3(CC3)C4)c(Cl)cn2)CC1 (centres unmarked) [Example 81, N-((1r,4r)-4-(3-(5-chloro-4-(4′H,6′H-spiro[cyclopropane-1,5′-pyrrolo[1,2-b]pyrazole]-3′-yl)pyridin-2-yl)ureido)cyclohexyl)acetamide] | 58.3 | 91.5 |
| CC(=O)NC1CCC(NC(=O)Nc2cc(-c3cnn4c3CC(C)(C)C4)c(F)cn2)CC1 (centres unmarked) [Example 51, N-((1r,4r)-4-(3-(4-(5,5-dimethyl-5,6-dihydro-4H-pyrrolo[1,2-b]pyrazol-3-yl)-5-fluoropyridin-2-yl)ureido)cyclohexyl)acetamide] | 60.2 | 92.8 |
| COc1cc(F)ccc1-c1ccnc(NC(=O)NC2CC(N)C2)c1 (centres unmarked) [Example 35, 1-((1r,3r)-3-aminocyclobutyl)-3-(4-(4-fluoro-2-methoxyphenyl)pyridin-2-yl)urea] | 30 | 62.7 |
| NC1CCC(NC(=O)Nc2cc(-c3ccc(F)c4ccoc34)ccn2)CC1 (centres unmarked) [Example 8, 1-((1r, 4r)-4-aminocyclohexyl)-3-(4-(4-fluoro-benzofuran-7-yl)pyridin-2-yl) urea] | 23.1 | 61.3 |
| CC(=O)NC1CCC(NC(=O)Nc2cc(-c3cnn4c3COCC4)c(Cl)cn2)CC1 (centres unmarked) [Example 82, N-((1r,4r)-4-(3-(5-chloro-4-(6,7-dihydro-4H-pyrazolo[5,1-c][1,4]oxazine-3-yl)pyridin-2-yl)ureido)cyclohexyl)acetamide] | 38 | 79.2 |
| COc1cc(-c2ccnc(NC(=O)NC3CCC(N)CC3)c2)c(F)cc1F (centres unmarked) [Example 7, 1-((1r,4r)-4-aminocyclohexyl)-3-(4-(2,4-difluoro-5-methoxyphenyl)pyridine-2-yl)urea] | 34.3 | 81.1 |
| COCCNC1CCC(NC(=O)Nc2cc(-c3cnn4c3CC(C)(C)C4)ccn2)CC1 (centres unmarked) [Example 17, 1-(4-(5,5-dimethyl-5,6-dihydro-4H-pyrrolo[1,2-b]pyrazol-3-yl)pyridin-2-yl)-3-((1r,4r)-4-((2-methoxyethyl)amino)cyclohexyl)urea] | 68.2 | 90.2 |
| COc1cc(F)ccc1-c1ccnc(NC(=O)Nc2ccc(F)nc2)c1 [Example 33, 1-(4-(4-fluoro-2-methoxyphenyl)pyridin-2-yl)-3(6-fluoropyridin-3-yl)urea] | 11.9 | 81 |
| COc1cc(F)ccc1-c1cc(NC(=O)NC2CCC(NC3CCOC3)CC2)ncc1Cl (centres unmarked) [Example 25, 1-(5-chloro-4-(4-fluoro-2-methoxyphenyl)pyridin-2-yl)-3-((1r,4r)-4-((tetrahydrofuran-3-yl)amino)cyclohexyl)urea] | 28.7 | 61.2 |
| CC(=O)NC1CCC(NC(=O)Nc2cc(-c3cnn4c3CC(C)(C)C4)c(C)cn2)CC1 (centres unmarked) [Example 52, N-((1r,4r)-4-(3-(4-(5,5-dimethyl-5,6-dihydro-4H-pyrrolo[1,2-b]pyrazol-3-yl-S-methylpyridin-2-yl)ureido)cyclohexyl)acetamide] | 39.7 | 78.5 |
| CC(=O)NC1CC(NC(=O)Nc2cc(-c3cnn4c3CC(C)(C)C4)c(Cl)cn2)C1 (centres unmarked) [Example 75, N-((1r,3r)-3-(3-(5-chloro-4-(5,5-dimethyl-5,6-dihydro-4H-pyrrolo[1,2-b]pyrazol-3-yl)pyridin-2-yl)ureido)cyclobutyl)acetamide] | 51 | 83 |
| CC1(C)Cc2c(-c3cc(NC(=O)NC4CCC(NC5COC5)CC4)ncc3Cl)cnn2C1 (centres unmarked) [Example 63] | 40.2 | 69.3 |
| CC1(C)Cc2c(-c3cc(NC(=O)NC4CCCC(N)CC4)ncc3Cl)cnn2C1 (centres unmarked) [Example 70, 1-(4-aminocycloheptyl)-3-(5-chloro-4-(5,5-dimethyl-5,6-dihydro-4H-pyrrolo[1,2-b]pyrazole-3-yl)pyridin-2-yl)urea] | 40 | 83.7 |
| CCNC1CCCC(NC(=O)Nc2cc(-c3cnn4c3CC(C)(C)C4)c(Cl)cn2)C1 (centres unmarked) [Example 78, 1-(5-chloro-4-(5,5-dimethyl-5,6-dihydro-4H-pyrrolo[1,2-b]pyrazol-3-yl)pyridin-2-yl)-3-(3-(ethylamino)cyclohexyl)urea] | 68 | 80 |
| CC(=O)NC1CCC(NC(=O)Nc2cc(-c3cnc4n3CC(C)(C)C4)c(Cl)cn2)CC1 (centres unmarked) [Example 86, N-((1r,4r)-4-(3-(5-chloro-4-(6,6-dimethyl-6,7-dihydro-5H-pyrrolo [1,2-a]imidazol-3-)pyridin-2-yl)ureido)cyclohexyl)acetamide] | 50.1 | 88.3 |
| COCCNC1CCC(NC(=O)Nc2cc(-c3cnn4c3CC(C)(C)C4)c(Cl)cn2)CC1 (centres unmarked) [Example 66, 1-(5-chloro-4-(5,5-dimethyl-5,6-dihydro-4H-pyrrolo[1,2-b]pyrazol-3-yl)pyridin-2-yl)-3-((1s,4s)-4-((2-methoxyethyl)amino)cyclohexyl)urea] | 57 | 69 |
| CCNC1CCC(NC(=O)Nc2cc(-c3cnn4c3CC(C)(C)C4)c(Cl)cn2)CC1 (centres unmarked) [Example 59, 1-(5-chloro-4-(5,5-dimethyl-5,6-dihydro-4H-pyrrolo[1,2-b]pyrazol-3-yl)pyridin-2-yl)-3-((1r,4r)-4-(ethylamino)cyclohexyl)urea] | 72 | 62 |
| CC1(C)Cc2c(-c3cc(NC(=O)NC4CCC(NC(=O)C5CC5)CC4)ncc3Cl)cnn2C1 (centres unmarked) [Example 49] | 58 | 89.2 |
| COCCNC1CCC(NC(=O)Nc2cc(-c3ccc(F)cc3Cl)ccn2)CC1 (centres unmarked) [Example 11, 1-(4-(2-chloro-4-fluorophenyl)pyridin-2-yl)-3-((1r,4r)-4-((2-methoxyethyl)amino)cyclohexyl)urea] | 24.7 | 93.4 |
| COc1cc(F)ccc1-c1ccnc(NC(=O)NC2CCC(NC(=O)OC(C)(C)C)CC2)c1 (centres unmarked) [Example 1, tert-butyl((1r,4r)-4-(3-(4-(4-fluoro-2-methoxyphenyl)pyridin-2-yl)ureido)cyclohexyl) carbamate] | 48.5 | 97.3 |
| Cn1cc(-c2ccnc(NC(=O)NC3CCC(N)CC3)c2)cn1 (centres unmarked) [Example 13, 1-((1r,4r)-4-aminocyclohexyl)-3-(4-(1-methyl-1H-pyrazol-4-yl)pyridin-2-yl) urea] | -17.5 | 72.3 |
| CC1(C)Cc2c(-c3cc(NC(=O)NCCCNC(=O)OC(C)(C)C)ncc3Cl)cnn2C1 [Example 71, tert-butyl (3-(3-(5-chloro-4-(5,5-dimethyl-5,6-dihydro-4H-pyrrolo[1,2-b]pyrazol-3-)pyridin-2-yl)ureido)propyl)carbamate] | 34 | 64 |
| CC1(C)Cc2c(-c3cc(NC(=O)NC4CCC(NCCO)CC4)ncc3Cl)cnn2C1 (centres unmarked) [Example 62, 1-(5-chloro-4-(5,5-dimethyl-5,6-dihydro-4H-pyrrolo[1,2-b]pyrazol-3-yl)pyridin-2-yl)-3-((1r,4r)-4-((2-hydroxyethyl)amino)cyclohexyl)urea] | 54 | 90.9 |
